According to publication PMC11571207, “Stereorandomized Oncocins with Preserved Ribosome Binding and Antibacterial Activity” (Journal of Medicinal Chemistry, 2024):
In brackets after ≈: the same amount, converted by molar mass. Like-named read-outs stand apart in the source and are kept apart here. Non-standard residues stand in square brackets, D forms with d. Residues, ends and D or L forms follow the SMILES beside them.

Tests used:
A. baumannii ATCC19606 = test: microbe, parasite or virus in culture; settings: for MIC A. baumannii ATCC19606: supplement CSV
Summary of the method: (§1)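 Read-out was visible growth after MTT addition, the MIC being the lowest inhibitory peptide concentration. Bacteria grown to log phase in LB were exposed in MH medium to peptide from 64 μg/mL in twofold dilutions for 15-18h at 37°C.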

E. coli W3110 = test: microbe, parasite or virus in culture; settings: for MIC E. coli W3110: supplement CSV
Summary of the method: as §1

K. pneumoniae NCTC 418 = test: microbe, parasite or virus in culture; settings: for MIC K. pneumoniae NCTC418: supplement CSV
Summary of the method: as §1

P. aeruginosa PAO1 = test: microbe, parasite or virus in culture; settings: for MIC P. aeruginosa PAO1: supplement CSV
Summary of the method: as §1

S. aureus COL (MRSA) = test: microbe, parasite or virus in culture; settings: for MIC S. aureus COL (MRSA): supplement CSV
Summary of the method: as §1

E. cloacae = test: microbe, parasite or virus in culture; settings: for MIC E. cloacae: supplement CSV
Summary of the method: (§2)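 Minimal inhibitory concentrations come from broth microdilution in MH medium, with a top peptide concentration of 64 μg/mL halved serially.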

K. pneumoniae OXA-48 = test: microbe, parasite or virus in culture; settings: for MIC K. pneumoniae OXA-48: supplement CSV
Summary of the method: as §2

[1] = system: P. aeruginosa PA14 2P4 (pmrB); test: microbe, parasite or virus in culture
Summary of the method: as §2

P. aeruginosa PA14 = test: microbe, parasite or virus in culture; settings: for MIC P. aeruginosa PA14: supplement CSV
Summary of the method: as §2

P. aeruginosa ZEM-1A = test: microbe, parasite or virus in culture; settings: for MIC P. aeruginosa ZEM-1A: supplement CSV
Summary of the method: as §2

P. aeruginosa ZEM9A = test: microbe, parasite or virus in culture; settings: for MIC P. aeruginosa ZEM9A: supplement CSV
Summary of the method: as §2

[2] = system: P. aeruginosa PA14 4.13 (phoQ); settings: for MIC P. aeruginosa PA14 4.13: supplement CSV
[3] = system: P. aeruginosa PA14 4.18 (pmrB); settings: for MIC P. aeruginosa PA14 4.18: supplement CSV
human red blood cells = test: Hemolysis assay, minimum hemolytic concentration
[4] = polymyxin B resistant strain, 12.5% MHB pH 7.4, 16–20 h at 37 °C
[5] = polymyxin B resistant strain, full MHB pH 7.4, 16–20 h at 37 °C

## CC[C@H](C)[C@H](NC(=O)[C@@H](CCCNC(=N)N)NC(=O)[C@H](CCCNC(=N)N)NC(=O)[C@@H]1CCCN1C(=O)[C@@H]1CCCN1C(=O)[C@H](CCCNC(=N)N)NC(=O)[C@@H]1CCCN1C(=O)[C@H](CCCNC(=N)N)NC(=O)[C@@H]1CCCN1C(=O)[C@H](CC(C)C)NC(=O)[C@H](Cc1ccc(O)cc1)NC(=O)[C@@H]1CCCN1C(=O)[C@@H]1CCCN1C(=O)[C@H](CCCCN)NC(=O)[C@H](CC(=O)O)NC(=O)[C@@H](N)C(C)C)C(=O)N[C@@H](Cc1ccc(O)cc1)C(=O)N[C@@H](CC(N)=O)C(=O)N[C@H](CCCNC(=N)N)C(N)=O [Onc112, reference compound] (H-VDKPPYLPRPRPPR[dR]IYN[dR]-NH2)
A. baumannii ATCC19606; A. baumannii ATCC19606, 12.5% Müller–Hinton medium, 16–20 h at 37 °C
  MIC A. baumannii, 12.5% MHB: 4 µg/mL (≈ 1.67 µM)
A. baumannii ATCC19606; A. baumannii ATCC19606, full Müller–Hinton medium, 16–20 h at 37 °C
  MIC A. baumannii, Full MHB: 32 µg/mL (≈ 13.4 µM)
A. baumannii ATCC19606; 12.5% MH pH 7.4
  MIC A. baumannii ATCC19606: 4 µg/mL (≈ 1.67 µM)
A. baumannii ATCC19606; full MH pH 7.4
  MIC A. baumannii ATCC19606: 32 µg/mL (≈ 13.4 µM)
E. coli W3110; E. coli W3110, 12.5% Müller–Hinton medium, 16–20 h at 37 °C, broth microdilution
  MIC E. coli, 12.5% MHB: 2 µg/mL (≈ 0.837 µM)
E. coli W3110; E. coli W3110, full Müller–Hinton medium, 16–20 h at 37 °C, broth microdilution
  MIC E. coli, Full MHB: 4 µg/mL (≈ 1.67 µM)
E. coli W3110; 12.5% MH pH 7.4
  MIC E. coli W3110: 2 µg/mL (≈ 0.837 µM)
E. coli W3110; full MH pH 7.4
  MIC E. coli W3110: 4 µg/mL (≈ 1.67 µM)
K. pneumoniae NCTC 418; K. pneumoniae NCTC 418, 12.5% Müller–Hinton medium, 16–20 h at 37 °C
  MIC K. pneumoniae, 12.5% MHB: 2 µg/mL (≈ 0.837 µM)
K. pneumoniae NCTC 418; K. pneumoniae NCTC 418, full Müller–Hinton medium, 16–20 h at 37 °C
  MIC K. pneumoniae, Full MHB: 4 µg/mL (≈ 1.67 µM)
K. pneumoniae NCTC 418; 12.5% MH pH 7.4
  MIC K. pneumoniae NCTC418: 2 µg/mL (≈ 0.837 µM)
K. pneumoniae NCTC 418; full MH pH 7.4
  MIC K. pneumoniae NCTC418: 4 µg/mL (≈ 1.67 µM)
P. aeruginosa PAO1; P. aeruginosa PAO1, 12.5% Müller–Hinton medium, 16–20 h at 37 °C
  MIC P. aeruginosa, 12.5% MHB: 4 µg/mL (≈ 1.67 µM)
P. aeruginosa PAO1; P. aeruginosa PAO1, full Müller–Hinton medium, 16–20 h at 37 °C
  MIC P. aeruginosa, Full MHB: 64 µg/mL (≈ 26.8 µM)
P. aeruginosa PAO1; 12.5% MH pH 7.4
  MIC P. aeruginosa PAO1: 4 µg/mL (≈ 1.67 µM)
P. aeruginosa PAO1; full MH pH 7.4
  MIC P. aeruginosa PAO1: 64 µg/mL (≈ 26.8 µM)
S. aureus COL (MRSA); S. aureus COL (MRSA), 12.5% Müller–Hinton medium, 16–20 h at 37 °C
  MIC S. aureus, 12.5% MHB: 32 µg/mL (≈ 13.4 µM)
S. aureus COL (MRSA); S. aureus COL (MRSA), full Müller–Hinton medium, 16–20 h at 37 °C
  MIC S. aureus, Full MHB: > 64 µg/mL
S. aureus COL (MRSA); 12.5% MH pH 7.4
  MIC S. aureus COL (MRSA): 32 µg/mL (≈ 13.4 µM)
S. aureus COL (MRSA); full MH pH 7.4
  MIC S. aureus COL (MRSA): >64 µg/mL
E. cloacae; 12.5% MHB pH 7.4, 16–20 h at 37 °C
  MIC E. cloacae, 12.5% MHB: 1 µg/mL (≈ 0.418 µM)
E. cloacae; full MHB pH 7.4, 16–20 h at 37 °C
  MIC E. cloacae, full MHB: 2 µg/mL (≈ 0.837 µM)
E. cloacae; 12.5% MH pH 7.4
  MIC E. cloacae: 1 µg/mL (≈ 0.418 µM)
E. cloacae; full MH pH 7.4
  MIC E. cloacae: 2 µg/mL (≈ 0.837 µM)
K. pneumoniae OXA-48; carbapenem-resistant, 12.5% MHB pH 7.4, 16–20 h at 37 °C
  MIC K. pneumoniae OXA-48, 12.5% MHB: 1 µg/mL (≈ 0.418 µM)
K. pneumoniae OXA-48; carbapenem-resistant, full MHB pH 7.4, 16–20 h at 37 °C
  MIC K. pneumoniae OXA-48, full MHB: 8 µg/mL (≈ 3.35 µM)
K. pneumoniae OXA-48; 12.5% MH pH 7.4
  MIC K. pneumoniae OXA-48: 1 µg/mL (≈ 0.418 µM)
K. pneumoniae OXA-48; full MH pH 7.4
  MIC K. pneumoniae OXA-48: 8 µg/mL (≈ 3.35 µM)
[1]; [4]
  MIC P. aeruginosa PA14 2P4 (pmrB), 12.5% MHB: 4 to 8 µg/mL
[1]; supplement CSV, 12.5% MH pH 7.4
  MIC P. aeruginosa PA14 2P4: 4 to 8 µg/mL
P. aeruginosa PA14; 12.5% MHB pH 7.4, 16–20 h at 37 °C, two different duplicate MIC determinations
  MIC P. aeruginosa PA14, 12.5% MHB: 16 µg/mL (≈ 6.69 µM)
P. aeruginosa PA14; full MHB pH 7.4, 16–20 h at 37 °C, two different duplicate MIC determinations
  MIC P. aeruginosa PA14, full MHB: > 32 µg/mL
P. aeruginosa PA14; 12.5% MH pH 7.4
  MIC P. aeruginosa PA14: 16 µg/mL (≈ 6.69 µM)
P. aeruginosa PA14; full MH pH 7.4
  MIC P. aeruginosa PA14: >32 µg/mL
P. aeruginosa ZEM-1A; clinical isolate, 12.5% MHB pH 7.4, 16–20 h at 37 °C, cells marked c: single measurement (in duplicates)
  MIC P. aeruginosa ZEM-1A, 12.5% MHB: 8 µg/mL (≈ 3.35 µM)
P. aeruginosa ZEM-1A; clinical isolate, full MHB pH 7.4, 16–20 h at 37 °C, cells marked c: single measurement (in duplicates)
  MIC P. aeruginosa ZEM-1A, full MHB: 32 µg/mL (≈ 13.4 µM)
P. aeruginosa ZEM-1A; 12.5% MH pH 7.4
  MIC P. aeruginosa ZEM-1A: 8 µg/mL (≈ 3.35 µM)
P. aeruginosa ZEM-1A; full MH pH 7.4
  MIC P. aeruginosa ZEM-1A: 32 µg/mL (≈ 13.4 µM)
P. aeruginosa ZEM9A; clinical isolate, 12.5% MHB pH 7.4, 16–20 h at 37 °C
  MIC P. aeruginosa ZEM9A, 12.5% MHB: 8 µg/mL (≈ 3.35 µM)
P. aeruginosa ZEM9A; clinical isolate, full MHB pH 7.4, 16–20 h at 37 °C
  MIC P. aeruginosa ZEM9A, full MHB: > 64 µg/mL
P. aeruginosa ZEM9A; 12.5% MH pH 7.4
  MIC P. aeruginosa ZEM9A: 8 µg/mL (≈ 3.35 µM)
P. aeruginosa ZEM9A; full MH pH 7.4
  MIC P. aeruginosa ZEM9A: >64 µg/mL
[2]; [4]
  MIC P. aeruginosa PA14 4.13 (phoQ), 12.5% MHB: 16 µg/mL (≈ 6.69 µM)
[2]; [5]
  MIC P. aeruginosa PA14 4.13 (phoQ), full MHB: > 32 µg/mL
[2]; 12.5% MH pH 7.4
  MIC P. aeruginosa PA14 4.13: 16 µg/mL (≈ 6.69 µM)
[2]; full MH pH 7.4
  MIC P. aeruginosa PA14 4.13: >32 µg/mL
[3]; [4]
  MIC P. aeruginosa PA14 4.18 (pmrB), 12.5% MHB: 16 µg/mL (≈ 6.69 µM)
[3]; [5]
  MIC P. aeruginosa PA14 4.18 (pmrB), full MHB: > 32 µg/mL
[3]; 12.5% MH pH 7.4
  MIC P. aeruginosa PA14 4.18: 16 µg/mL (≈ 6.69 µM)
[3]; full MH pH 7.4
  MIC P. aeruginosa PA14 4.18: >32 µg/mL
Human red blood cells; 2.5% human red blood cells (final) in 10 mM phosphate, 150 mM NaCl, pH 7.4, 25 °C, 4 h, visual inspection
  Haemolysis on hRBC, MHC: >1000 µg/mL
Human red blood cells; supplement CSV
  MHC human red blood cells: >1000 µg/mL
